This is an account of results in patent US20100204182A1, “ECTONUCLEOTIDASE INHIBITORS” (RHEINISCHE FRIEDRICH-WILHELMS-UNIVERSITAT BONN, priority 2006, published 2010).

Where two headings read alike, the source gives them in different places.

The target in one assay is T1, human NTPDase2 (Homo sapiens, UniProt Q9Y5L3).
T1 sequence (Q9Y5L3 1-495): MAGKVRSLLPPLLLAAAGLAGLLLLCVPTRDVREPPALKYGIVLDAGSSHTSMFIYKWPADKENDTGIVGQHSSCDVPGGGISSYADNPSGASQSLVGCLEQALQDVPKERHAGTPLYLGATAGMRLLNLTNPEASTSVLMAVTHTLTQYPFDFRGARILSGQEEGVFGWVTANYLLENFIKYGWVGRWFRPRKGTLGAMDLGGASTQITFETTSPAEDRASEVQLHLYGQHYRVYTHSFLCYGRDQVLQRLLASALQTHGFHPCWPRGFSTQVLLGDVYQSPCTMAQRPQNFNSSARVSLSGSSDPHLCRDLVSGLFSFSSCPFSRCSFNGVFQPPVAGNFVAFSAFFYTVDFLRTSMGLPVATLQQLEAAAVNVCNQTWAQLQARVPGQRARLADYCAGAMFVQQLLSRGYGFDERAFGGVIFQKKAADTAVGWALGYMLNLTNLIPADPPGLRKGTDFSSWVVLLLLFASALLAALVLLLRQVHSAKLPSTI
Briefly: NTPDase inhibition assay by capillary electrophoresis (CE), NTPDase2. As to conditions: for inhibition at 1000 µM: read-out: NTPDase2 inhibition (%) at 1 mM. Type of assay: biochemical.

For the next assay, the target named is T2, human NTPDase1 (Homo sapiens, UniProt P49961).
T2 sequence (P49961 1-510): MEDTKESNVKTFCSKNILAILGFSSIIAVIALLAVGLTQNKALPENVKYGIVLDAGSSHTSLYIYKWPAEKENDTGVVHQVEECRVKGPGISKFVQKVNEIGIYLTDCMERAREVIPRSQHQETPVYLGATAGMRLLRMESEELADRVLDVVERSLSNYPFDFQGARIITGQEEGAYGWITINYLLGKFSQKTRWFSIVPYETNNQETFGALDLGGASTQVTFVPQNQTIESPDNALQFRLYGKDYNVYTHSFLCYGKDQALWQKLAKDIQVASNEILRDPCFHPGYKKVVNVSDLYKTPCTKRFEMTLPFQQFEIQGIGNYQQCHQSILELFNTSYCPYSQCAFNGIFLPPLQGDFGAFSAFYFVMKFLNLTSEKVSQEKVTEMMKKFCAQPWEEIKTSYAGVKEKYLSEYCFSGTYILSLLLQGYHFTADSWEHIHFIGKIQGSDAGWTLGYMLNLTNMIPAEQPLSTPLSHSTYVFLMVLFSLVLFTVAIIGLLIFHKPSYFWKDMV
The assay can be described thus: NTPDase inhibition assay by capillary electrophoresis (CE), NTPDase1. As to conditions: ATP 320 μM; for inhibition at 1000 µM: 1 mM compound; for Ki: CE method, Km 17 μM, read-out: NTPDase1 Ki [μM] ± SEM. Type of assay: biochemical. How it is done: (§1) The applied enzyme inhibition assay has been described (Iqbal J, Vollmayer P, Braun N, Zimmermann H, Müller C E. A capillary electrophoresis method for the characterization of ecto-nucleoside triphosphate diphosphohydrolases (NTPDases) and the analysis of inhibitors by in-capillary enzymatic microreaction. Purinergic Signalling 2005, 1, 349-358).
(§2) A. CE instrumentation: All experiments were carried out using a P/ACE MDQ capillary electrophoresis system (Beckman Instruments, Fullerton, Calif., USA) equipped with a UV detection system coupled with a diode-array detector (DAD). Data collection and peak area analysis were performed by the P/ACE MDQ software 32 KARAT obtained from Beckman Coulter. The capillary temperature was kept constant at 25° C. The temperature of the sample storing unit was also adjusted to 25° C. The electrophoretic separations were carried out using an eCAP polyacrylamide-coated fused-silica capillary [(30 cm (20 cm effective length)×50 μm internal diameter (I.D.)×360 μm outside diameter (O.D.), obtained from CS-Chromatographie (Langerwehe, Germany)]. The separation was performed using an applied current of −60 μA and a data acquisition rate of 8 Hz. Analytes were detected using direct UV absorbance at 210 nm. The capillary was conditioned by rinsing with water for 2 min and subsequently with buffer (phosphate 50 mM, pH 6.5) for 1 min. Sample injections were made at the cathodic side of the capillary.
(§3) B. NTPDase inhibition assay by capillary electrophoresis: Enzyme inhibition assays were carried out at 37° C. in a final volume of 100 μl. The reaction mixture contained 320 μM of ATP (substrate) in reaction buffer. The reaction buffer contained 140 mM NaCl, 5 mM KCl, 1 mM MgCl2, 2 mM CaCl2, and 10 mM Hepes, pH 7.4.
(§4) Different concentrations of inhibitors dissolved in DMSO or water (10 μl) were added and the reaction was initiated by the addition of 10 μl of the appropriately diluted recombinant or native human or rat NTPDase enzyme. […] The mixture (final volume 100 μl) was incubated for 15 min and terminated by heating at 99° C. for 4 min. Aliquots of the reaction mixture (50 μl) were then transferred to mini-CE vials and injected into the CE instrument under the conditions described above. 20 μM of UMP was used as internal standard. Inhibition of NTPDase was tested over a range of 6 to 8 concentrations of test compound spanning 3 orders of magnitude to determine K1 values. Each analysis was repeated two times (in triplicates) in two separate experiments. The Cheng-Prusoff equation was used to calculate the K1 values from the IC50 values, determined by the non-linear curve fitting program PRISM® 3.0 (GraphPad, San Diego, Calif., USA). In table 1K, values of selected compounds as inhibitors of human NTPDases are given.

The target in a further assay is hP2Y12 (Homo sapiens, UniProt Q9H244). The assay can be described thus: Inhibition of [3H]PSB-0413 binding at hP2Y12. The following applies: mean ± SEM, read-out: hP2Y12 % Inhibition of [^3H]PSB-0413 Binding at 10 μM, n = 3. How it is done: In table 2 inhibition data of selected examples at human P2Y receptor subtypes were collected. It can be seen that no compound was identified that inhibited P2Y receptors at high concentrations of 100 μM and 10 μM, respectively.

The target of another assay is T3, human NTPDase8 (Homo sapiens, UniProt Q5MY95).
T3 sequence (Q5MY95 1-495): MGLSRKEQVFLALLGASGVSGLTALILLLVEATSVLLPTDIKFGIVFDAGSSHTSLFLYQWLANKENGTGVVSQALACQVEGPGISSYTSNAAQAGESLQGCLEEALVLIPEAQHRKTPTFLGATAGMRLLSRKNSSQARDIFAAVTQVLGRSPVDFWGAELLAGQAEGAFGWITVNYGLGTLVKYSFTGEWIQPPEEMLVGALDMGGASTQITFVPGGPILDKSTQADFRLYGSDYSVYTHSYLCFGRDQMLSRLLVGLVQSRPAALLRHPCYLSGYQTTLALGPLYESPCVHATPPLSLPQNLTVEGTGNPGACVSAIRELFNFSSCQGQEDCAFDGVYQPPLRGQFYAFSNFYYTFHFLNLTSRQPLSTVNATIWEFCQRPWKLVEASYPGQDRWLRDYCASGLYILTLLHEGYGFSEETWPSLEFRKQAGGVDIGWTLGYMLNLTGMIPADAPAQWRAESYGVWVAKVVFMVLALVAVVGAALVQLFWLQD
The assay can be described thus: NTPDase inhibition assay by capillary electrophoresis (CE), NTPDase8. It counts as biochemical. The following applies: for inhibition at 1000 µM: human NTPDase8, 1 mM compound, ATP 320 μM; for Ki: read-out: NTPDase8 Ki [μM] ± SEM. How it is done: as §1, §2, §3, §4

In a further assay the target is T4, human NTPDase3 (Homo sapiens, UniProt O75355).
T4 sequence (O75355 1-529): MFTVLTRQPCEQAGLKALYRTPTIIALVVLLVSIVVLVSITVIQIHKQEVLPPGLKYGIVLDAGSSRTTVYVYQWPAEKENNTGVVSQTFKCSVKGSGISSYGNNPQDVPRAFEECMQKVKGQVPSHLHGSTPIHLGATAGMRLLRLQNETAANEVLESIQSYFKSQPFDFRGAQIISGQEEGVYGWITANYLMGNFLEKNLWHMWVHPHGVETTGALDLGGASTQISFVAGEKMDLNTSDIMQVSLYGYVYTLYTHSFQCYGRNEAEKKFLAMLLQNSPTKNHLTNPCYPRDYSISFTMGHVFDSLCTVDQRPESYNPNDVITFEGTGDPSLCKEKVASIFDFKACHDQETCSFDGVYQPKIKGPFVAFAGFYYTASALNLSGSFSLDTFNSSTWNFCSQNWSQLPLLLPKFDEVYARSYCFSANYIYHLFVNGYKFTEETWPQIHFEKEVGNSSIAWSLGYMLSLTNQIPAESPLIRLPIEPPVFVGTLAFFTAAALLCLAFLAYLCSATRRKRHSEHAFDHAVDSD
The assay can be described thus: NTPDase inhibition assay by capillary electrophoresis (CE), NTPDase3. Type of assay: biochemical. The following applies: ATP 320 μM; for inhibition at 1000 µM: 1 mM compound; for Ki: CE method, Km 75 μM, read-out: NTPDase3 Ki [μM] ± SEM. How it is done: as §1, §2, §3, §4

The target in the next assay is rP2Y6 (Rattus norvegicus, UniProt Q63371). Briefly: Inhibition of UDP binding at rP2Y6. As to conditions: read-out: rP2Y6 % inhibition of UDP binding at 100 μM, n = 3, mean ± SEM.
[1] abbreviates: human NTPDase2, CE method, ATP 320 μM, Km 70 μM, read-out: NTPDase2 Ki [μM] ± SEM.

hP2Y12, sequence (Q9H244 whole entry): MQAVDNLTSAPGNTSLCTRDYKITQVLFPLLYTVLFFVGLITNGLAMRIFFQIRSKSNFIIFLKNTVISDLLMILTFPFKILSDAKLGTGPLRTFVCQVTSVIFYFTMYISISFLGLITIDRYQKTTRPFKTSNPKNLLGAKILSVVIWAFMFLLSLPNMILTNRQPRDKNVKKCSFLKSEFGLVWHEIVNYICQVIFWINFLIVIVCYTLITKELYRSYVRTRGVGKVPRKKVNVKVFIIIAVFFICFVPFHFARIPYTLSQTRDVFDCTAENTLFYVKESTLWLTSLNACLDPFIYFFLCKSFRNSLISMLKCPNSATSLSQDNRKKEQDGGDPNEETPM
rP2Y6, sequence (Q63371 whole entry): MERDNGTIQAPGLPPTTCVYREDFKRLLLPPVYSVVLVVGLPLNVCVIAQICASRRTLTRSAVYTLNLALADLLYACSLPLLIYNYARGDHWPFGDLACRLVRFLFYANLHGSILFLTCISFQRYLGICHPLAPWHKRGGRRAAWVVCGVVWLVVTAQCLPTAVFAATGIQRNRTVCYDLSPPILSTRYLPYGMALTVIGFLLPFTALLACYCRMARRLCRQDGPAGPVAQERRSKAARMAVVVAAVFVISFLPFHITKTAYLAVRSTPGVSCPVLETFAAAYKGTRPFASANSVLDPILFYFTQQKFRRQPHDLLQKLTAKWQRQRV

As for `CCOP(=O)(CC(=O)OCCNC(=O)CNC(=O)[C@H]1O[C@@H](n2ccc(=O)[nH]c2=O)[C@@H](O)[C@H]1O)OCC` [Compound 9, 2-[(2S,3R,4S,5R)-5-(2,4-Dioxo-3,4-dihydropyrimidin-1(2H)-yl)-3,4-dihydroxy-tetrahydro-furane-2-carboxamido]ethaneamido-ethyloxycarbonyl methylenephosphonic acid diethylester], the “NTPDase2 inhibition (%) at 1 mM” value on human NTPDase2 (human NTPDase2, 1 mM compound, ATP 320 μM) is listed as 54%. For the same compound, on human NTPDase2 (setting [1]), the Ki (usually a measure of affinity in units of concentration, obtained from inhibition or displacement) was around 165 µM.
`CCOP(=O)(Cc1ccc(NC(=O)CNC(=O)[C@H]2O[C@@H](n3cnc4c(N)ncnc43)C(O)C2O)cc1)OCC` (stereo in doubt) [CC1, 4-[2-((2S,3R,4S,5R)-5-(6-Amino-9H-purin-9-yl)-3,4-dihydroxy-tetrahydro-furane-2-carboxamido)ethaneamido]benzylphosphonic acid diethylester]: the inhibition at 1000 µM against human NTPDase1, at human NTPDase2, on human NTPDase8 and against human NTPDase3 was 0% each time. The Ki at human NTPDase1 was above 50 µM; on human NTPDase2, above 200 µM; at human NTPDase8, above 100 µM; at human NTPDase3, above 200 µM. For the same compound, at hP2Y12, the inhibition – broadly, the relative decrease from the control value, in per cent – at 10 µM was -4 ± 6%.
With `CCOP(=O)(Cc1ccc(NC(=O)CCCNC(=O)[C@H]2O[C@@H](n3cnc4c(N)ncnc43)C(O)C2O)cc1)OCC` (stereo in doubt) [CC3, 4-[4-((2S,3R,4S,5R)-5-(6-Amino-9H-purin-9-yl)-3,4-dihydroxy-tetrahydro-furane-2-carboxamido)butaneamido]benzylphosphonic acid diethylester], the Ki is 161 ± 24 µM at human NTPDase1, 213 ± 34 µM on human NTPDase2 (setting [1]), above 100 µM at human NTPDase8 and above 200 µM at human NTPDase3. Also, the inhibition at 10 µM on hP2Y12 turned out to be 5 ± 1%. Besides, the inhibition at 1000 µM on human NTPDase8 and against human NTPDase3 was 0% each time.
Turning to `CCOP(=O)(Cc1ccc(NC(=O)CCNC(=O)[C@H]2O[C@@H](n3cnc4c(N)ncnc43)C(O)C2O)cc1)OCC` (stereo in doubt) [CC2, 4-[3-((2S,3R,4S,5R)-5-(6-Amino-9H-purin-9-yl)-3,4-dihydroxy-tetrahydro-furane-2-carboxamido)propaneamido]benzylphosphonic acid diethylester], the Ki is 154 ± 37 µM at human NTPDase1, 1440 ± 64 µM on human NTPDase2 (setting [1]), 255 ± 25.3 µM at human NTPDase8 and above 200 µM on human NTPDase3. Moreover, the inhibition at 10 µM at hP2Y12 is 1 ± 6%. The inhibition at 1000 µM at human NTPDase3 is 0%.
On to `CCOP(=O)(OCC)C(NC(=O)CCNC(=O)[C@H]1O[C@@H](n2cnc3c(N)ncnc32)C(O)C1O)P(=O)(OCC)OCC` (stereo in doubt) [CC4, 3-[(2S,3R,4S,5R)-5-(6-Amino-9H-purin-9-yl)-3,4-dihydroxy-tetrahydrofurane-2-carboxamido]propaneamidomethylenediphosphonic acid tetraethylester], for which, on human NTPDase1, the inhibition at 1000 µM is 0% and the Ki was above 50 µM. In addition, at human NTPDase2, the Ki is above 200 µM and the inhibition at 1000 µM worked out at 0%. For the same compound, the inhibition at 100 µM on rP2Y6 turned out to be 5 ± 8%.
In the case of `CCOP(=O)(Cc1ccc(NC(=O)[C@H]2O[C@@H](n3ccc(=O)[nH]c3=O)C(O)C2O)cc1)OCC` (stereo in doubt) [Compound 1, 4-[(2S,3R,4S,5R)-5-(2,4-Dioxo-3,4-dihydropyrimidin-1(2H)-yl)-3,4-dihydroxy-tetrahydrofurane-2-carboxamido]benzylphosphonic acid diethylester], the Ki at human NTPDase2 was determined as 117 ± 15 µM. Further, the inhibition at 100 µM on rP2Y6 is -12 ± 3%.
`CCOP(=O)(OCC)C(NC(=O)CCCNC(=O)[C@H]1O[C@@H](n2cnc3c(N)ncnc32)C(O)C1O)P(=O)(OCC)OCC` (stereo in doubt) [CC5, 4-[(2S,3R,4S,5R)-5-(6-Amino-9H-purin-9-yl)-3,4-dihydroxy-tetrahydrofurane-2-carboxamido]butaneamidomethylenediphosphonic acid tetraethylester]: on human NTPDase1, the inhibition at 1000 µM was found to be 0% and the Ki is above 50 µM. In addition, at human NTPDase2, the Ki is above 200 µM and the inhibition at 1000 µM was 0%. Further, the inhibition at 100 µM on rP2Y6 is -5 ± 2%.
